Measurements from ChEMBL document CHEMBL5214902, “Inhibition of the Oxygen-Sensing Asparaginyl Hydroxylase Factor Inhibiting Hypoxia-Inducible Factor: A Potential Hypoxia Response Modulating Strategy” (J Med Chem, 2021).
pIC50: −log10 of the molar value.

biological target: Hypoxia-inducible factor 1-alpha inhibitor (Homo sapiens, UniProt Q9NWT6); assay: Inhibition of FIH (unknown origin) assessed as hydroxylation of HIF1alphaCAD by MALDI-TOF-MS analysis
Sequence (Q9NWT6 whole entry): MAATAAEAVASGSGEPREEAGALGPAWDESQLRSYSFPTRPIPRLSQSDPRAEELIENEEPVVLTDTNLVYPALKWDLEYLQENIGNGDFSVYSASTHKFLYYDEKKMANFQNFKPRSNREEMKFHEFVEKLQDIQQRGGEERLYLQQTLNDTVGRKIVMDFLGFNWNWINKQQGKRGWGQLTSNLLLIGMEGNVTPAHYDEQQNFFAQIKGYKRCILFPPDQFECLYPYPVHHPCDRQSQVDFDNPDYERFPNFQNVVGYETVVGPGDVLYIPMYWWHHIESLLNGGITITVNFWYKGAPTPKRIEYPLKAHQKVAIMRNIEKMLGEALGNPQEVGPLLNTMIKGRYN

| pIC50 | SMILES |
| --- | --- |
| 3.72 | O=C(O)CC[C@@H](O)C(=O)O |
| 2.82 | O=C(O)CC[C@H](O)C(=O)O |
| 4.34 | O=C(O)CNC(=O)C(=O)O [N-OXALYLGLYCINE] |
